Results from PubChem BioAssay AID1552 (Sanford-Burnham Center for Chemical Genomics, 2009).
The source made the active and inactive calls. The rule behind the calls is not given here.

The compounds below were run against Ubiquitin-conjugating enzyme E2 N (Homo sapiens) (UniProt P61088) (assay: UBE2N binders by NMR, biophysical, purified protein (AID 1552)). Details: NMR binding to purified UBE2N.
Ubiquitin-conjugating enzyme E2 N (Homo sapiens), sequence (P61088 whole entry, looked up): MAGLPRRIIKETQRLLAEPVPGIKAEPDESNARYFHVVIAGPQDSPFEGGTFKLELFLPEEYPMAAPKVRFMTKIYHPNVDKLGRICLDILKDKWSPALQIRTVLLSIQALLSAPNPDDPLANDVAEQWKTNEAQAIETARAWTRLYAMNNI

SMILES | Kd
N#Cc1cc2ccccc2nc1N | > 4 mM (inactive)
O=C1CCCN1C(=O)CN1CCOCC1 | > 4 mM (inactive)
Cc1cc(OC(=O)c2c(C)cc(O)cc2O)cc(O)c1C(=O)O | > 4 mM (inactive)
O=C(O)c1cc(=O)[nH]c2ccccc12 | > 4 mM (inactive)
CC(=O)N1CCN(c2ccc(O)cc2)CC1 | > 4 mM (inactive)
CC1=[N+]([O-])C2(N)CCc3c(no[n+]3[O-])C2(O)C1 (stereo not drawn) | > 4 mM (inactive)
Cc1ccc(S(=O)(=O)CCc2ccccn2)cc1 | > 4 mM (inactive)
Cn1nc(C(=O)Nc2cccnc2)cc1Cl | > 4 mM (inactive)
Cc1nc2[nH]onc2c2nccc(=O)c12 | > 4 mM (inactive)
O=C1C=CC(=O)N1c1ccccc1O | > 4 mM (inactive)
N#CCSc1nc2ccccc2c(=O)n1-c1ccccc1 | > 4 mM (inactive)
COC(=O)C(O)c1ccccc1 (stereo not drawn) | > 4 mM (inactive)
Nc1ncnc(NCc2cccnc2)c1[N+](=O)[O-] | > 4 mM (inactive)
NC(=O)CCn1ncc2ccccc21 | > 4 mM (inactive)
Cc1ccc(NC(=O)c2ccccc2)s1 | > 4 mM (inactive)
NC(=O)c1ccc(N2C(=O)C=CC2=O)cc1Cl | > 4 mM (inactive)
CCCNC(=O)CSc1ncccc1C(=O)O | > 4 mM (inactive)
NC(=O)CSc1nc2ccccc2o1 | > 4 mM (inactive)
COc1cc(/C=C2/NC(=S)NC2=O)cc(Cl)c1O | > 4 mM (inactive)
C=C(C)[C@@H]1CC[C@]2(CO)CC[C@]3(C)[C@H](CCC4[C@@]5(C)CC[C@H](O)C(C)(C)C5CC[C@]43C)C12 (stereo partly drawn) | > 4 mM (inactive)
O=C(NCc1cccc(Cl)c1)c1cnccn1 | > 4 mM (inactive)
C=C1CCC(=O)C(C)CCC2C1CC2(C)C (stereo not drawn) | > 4 mM (inactive)

SMILES | Kd
Nc1c(Nc2ccccc2)c2ccccc2oc1=O | > 4 mM (inactive)
O=C1CCN(c2ccccc2)N1 | > 4 mM (inactive)
Nc1ccc(CN2CCOCC2)cc1 | > 4 mM (inactive)
Cc1cc(C)nc(/N=C(\N)N2CCc3ccccc32)n1 | > 4 mM (inactive)
NC(=O)c1cc2c(n(-c3ccccc3)c1=O)CCCC2=O | > 4 mM (inactive)
Cc1cc(C(=O)NC(C)c2ccncc2)cs1 (stereo not drawn) | > 4 mM (inactive)
CN(C)c1nc(N)nc(-c2nc3ccccc3s2)n1 | > 4 mM (inactive)
Cc1ccccc1-n1c(N)cc(=O)[nH]c1=S | > 4 mM (inactive)
Nc1nc(-c2ccc(F)c(F)c2)cs1 | > 4 mM (inactive)
COc1ccc(Cl)cc1-c1n[nH]c(=S)n1C | > 4 mM (inactive)
O=c1/c(=C/c2cccs2)sc2ncnn12 | > 4 mM (inactive)
O=C(NC1CCS(=O)(=O)C1)c1cccs1 (stereo not drawn) | > 4 mM (inactive)
CNC(=O)c1c(O)c2ccccc2[nH]c1=O | > 4 mM (inactive)
Nc1ccc(OC(F)(F)F)cc1 | > 4 mM (inactive)
Cc1nc2ccc(NC(=O)N3CCOCC3)cc2s1 | > 4 mM (inactive)
COc1ccc(CC(=O)c2ccc(O)cc2O)cc1 | > 4 mM (inactive)
Cc1nc2nc(-c3ccco3)nn2c(C)c1Cl | > 4 mM (inactive)
CC(=O)OCC(OC(C)=O)C(OC(C)=O)C(OC(C)=O)C(OC(C)=O)C(COC(C)=O)OC(C)=O (stereo not drawn) | > 4 mM (inactive)
O=C(/C=C/c1ccco1)NC1=NCCS1 | > 4 mM (inactive)
Cc1cc(C)n(C2CCS(=O)(=O)C2)n1 (stereo not drawn) | > 4 mM (inactive)
CC(=O)Nc1ccc(S(N)(=O)=O)cc1 | > 4 mM (inactive)
Nc1ccc2c(c1)CCC2=O | > 4 mM (inactive)

SMILES | Kd
COC(=O)c1cccs1 | > 4 mM (inactive)
O=C1CC(C(=O)O)c2ccccc21 (stereo not drawn) | > 4 mM (inactive)
C[C@@H]1C(=O)O[C@H]2[C@H]1CC[C@@]1(C)C=CC(=O)[C@@]3(C)O[C@@]213 | > 4 mM (inactive)
CN(Cc1nc2ccccc2n1C)C(=O)c1cccs1 | > 4 mM (inactive)
CC(C)CC(=O)NC1CCSC1=O (stereo not drawn) | > 4 mM (inactive)
COC(=O)[C@@H]1OC(=O)C2OC23[C@@]1(C)CCC1[C@@]2(C)CCC(=O)C(C)(C)C2C[C@@H](OC(C)=O)[C@]13C (stereo partly drawn) | > 4 mM (inactive)
O=S1(=O)CCC(NC(=S)N2CCOCC2)C1 (stereo not drawn) | > 4 mM (inactive)
O=C(c1ccc(N2CCNCC2)cc1)c1cccnc1 | > 4 mM (inactive)
OCc1ccc(OC(F)(F)F)cc1 | > 4 mM (inactive)
OCC1CCN(c2ncccn2)CC1 | > 4 mM (inactive)
N#CCc1nc2ccccc2s1 | > 4 mM (inactive)
Cc1nnc2sc(-c3ccco3)nn12 | > 4 mM (inactive)
O=C(Nc1ccc(N2CCOCC2)cc1)c1cnsn1 | > 4 mM (inactive)
O=C(Nc1cccc(C(F)(F)F)c1)c1cccnc1 | > 4 mM (inactive)
O=C(NC1CC1)c1ccccc1[N+](=O)[O-] | > 4 mM (inactive)
O=C(O)/C=C(\CC(=O)O)C(=O)O | > 4 mM (inactive)
CSc1nnc2c(n1)OC(C)=Nc1ccccc1-2 | > 4 mM (inactive)
NC(=O)NCCCC(N)C(=O)O (stereo not drawn) | > 4 mM (inactive)
Cc1cc(=O)n2[nH]c(N)nc2n1 | > 4 mM (inactive)
CC1(C)C=Cc2c(cc3occ(-c4ccc5c(c4)OCO5)c(=O)c3c2O)O1 | > 4 mM (inactive)
Nc1ncnc(NCCCO)c1[N+](=O)[O-] | > 4 mM (inactive)
O=C(NC1=NCCS1)c1ccc2snnc2c1 | > 4 mM (inactive)

SMILES | Kd
O=C(O)C1CSC(c2ccc(Cl)cc2)N1 (stereo not drawn) | > 4 mM (inactive)
O=C(O)c1csc(-c2ccccc2)n1 | > 4 mM (inactive)
CC(=O)Nc1ccc(S(=O)(=O)NCC2CCCO2)cc1 (stereo not drawn) | > 4 mM (inactive)
C/C=C(\C)c1nnc(NC(=O)C(C)C)s1 | > 4 mM (inactive)
Oc1ccccc1C(=S)N1CCCCCC1 | > 4 mM (inactive)
O=C1NC(=S)N/C1=C/c1ccsc1 | > 4 mM (inactive)
Nc1ccccc1-c1nc2ccccc2[nH]1 | > 4 mM (inactive)
CC(C)=CC(=O)Nc1ccc2c(c1)OCO2 | > 4 mM (inactive)
O=C(Nc1cnccn1)c1cccs1 | > 4 mM (inactive)
O=C(NC(=S)NCCO)c1ccccc1 | > 4 mM (inactive)
CCOC(=O)c1ccc2c(c1)nnn2C | > 4 mM (inactive)
CCOc1ccc(C(=O)c2ccncc2)cc1 | > 4 mM (inactive)
O=C(Nc1nnc(-c2ccccc2Cl)o1)c1ccco1 | > 4 mM (inactive)
C=C1CCC2[C@](C)(CO)[C@H](O)CC[C@@]2(C)[C@@H]1C/C=C1/C(=O)OC[C@H]1O (stereo partly drawn) | > 4 mM (inactive)
CSc1nc(=O)[nH]c2c1CCC2 | > 4 mM (inactive)
Nc1ccc(Cc2ccncc2)cc1 | > 4 mM (inactive)
CSc1nc(-c2ccccc2)ccc1C(N)=O | > 4 mM (inactive)
O=C(O)CCCCCCCC(=O)O | > 4 mM (inactive)
O=C(O)c1ccc(NC(=O)c2cccs2)cc1 | > 4 mM (inactive)
CC(=O)O[C@H]1C[C@@H](OC(C)=O)C(C)(C)C2CC(=O)[C@]3(C)C(CC[C@@]4(C)[C@H](c5ccoc5)OC(=O)[C@H]5O[C@]543)[C@]21C (stereo partly drawn) | > 4 mM (inactive)
COc1cccc(S(=O)(=O)Nc2cccnc2)c1 | > 4 mM (inactive)
Fc1cc2nccnc2cc1N1CCSCC1 | > 4 mM (inactive)
